Source: patent US20090018212A1, “METHODS OF RELIEVING STRESS” (Neuroscent Pty Ltd., priority 2005, published 2009)

Experiments:
[1] = system: sympathetic neurotransmission; test: Sympathetic neurotransmission in isolated vasa differentia after chronic stress of social deprivation and predator exposure; format: in vivo; conditions: mice, social deprivation and presence of predators 10 to 12 days; odour diluted in triethyl citrate
Description: The effects of odours on experimental animals exposed to stressors that cause chronic stress was assessed. Mice were divided into two groups, a control group exposed to minimal stress and a group exposed to severe stress by concurrent isolation and exposure to a predator. Each group was divided into sub-groups, one not exposed to any odour (control), one exposed to triethyl citrate vehicle (control), and the other groups exposed to an odour or a mixture of odours selected from cis-2-hexen-1-ol, trans-3-hexen-1-ol, trans-2-hexen-1-ol, cis-3-hexen-1-ol, trans-2-hexenal and α-pinene. Each odour compound was diluted (0.01 to 0.05% volume) with triethyl citrate. The solutions (0.5 mL) were placed on filter paper strips and placed within 30 cm of the animal cage. The response to stress was assessed using any or a combination of telemetry measurements, post-mortem electrophysiological studies and biochemical assays of blood samples.
Isolated vasa differentia were used to assess the effects of prolonged exposure to stress and its attenuation by odours. Following exposure of the mice to one of the stressors with or without odour, the level of neurotransmission from sympathetic varicosities was examined using standard focal extracellular recording methods (Lavidis and Bennett, 1992, 1993a, 1993b; D'Arbe et al., 2002). […] The extent of the increase reflects the level of stress the animal was exposed to during the previous 6-14 days (D'Arbe et al., 1999, D'Arbe et al., 2002).
Mice were exposed to two stressors concurrently, social deprivation and the presence of predators (rats in separate cages) for 10 to 12 days with or without the following odours or combination of odours, cis-2-hexen-1-ol, trans-2-hexen-1-ol, trans-3-hexen-1-ol, trans-2-hexenal, cis-3-hexen-1-ol, α-pinene and a combination of cis-3-hexen-1-ol and trans-2-hexenal. Two controls were used: mice not exposed to stress and mice exposed to stress together with triethyl citrate vehicle. The mice were monitored for up to 4 days after the stressors were removed.
Mice were placed in cages with one mouse per cage (social deprivation) in a room that contained cages with rats (predators) without odours (control). […] Box plots of the excitatory junction currents (EJC) obtained by electrophysiological methods are shown in FIG. 2 (control) and FIG. 3 (treated) and indicate the maximum EJC amplitude (Max), the distribution of 3rd quartiles (Q3), the median, the distribution of the 1st quartiles (Q1) and the distribution of the means. The data is from 16 animals from each treatment with at least 40 recording sites.

[2] = system: smooth muscle of mouse vas deferens; test: Organ bath safety test: success rate of transmission after application of the chemicals; format: cell-based; conditions: 1.0% vol; for function of smooth muscle (success rate of transmission): evaluated over 40 minutes
Description: Safety data for the components of the combination of the invention have been obtained by applying the chemicals to smooth muscle in organ bath experiments. The mouse vas deferens was isolated and placed in an electrophysiological organ bath. Extracellular recording of transmitter release from sympathetic varicosities was recorded before and after both application of each of the chemicals CH, TH or ap. The effect (“success rate”) of each of the chemicals was evaluated over 40 minutes. Success rate was measured as (number of successful transmissions/number of nerve stimulations)×100. Following this measurement, the chemicals were washed out.

humans = conditions: cited from earlier work
rats = conditions: cited from earlier work

| SMILES | effectiveness of the odour or odour combination from most effective to least effective (mean excitatory junction potentials, FIG. 1) [1] | function of smooth muscle (success rate of transmission) [2] | effect on the smooth muscle at the high concentration used [2] | hypnotic effect (humans) | resting period (rats) |
| --- | --- | --- | --- | --- | --- |
| CCC/C=C/CO [trans-2-hexen-1-ol, reference compound] | least effective | – | – | – | – |
| CC/C=C\CCO [cis-3-hexen-1-ol] | cis-3-hexen-1-ol>trans-2-hexenal | did not significantly affect | – | – | – |
| CCC/C=C\CO [cis-2-hexen-1-ol, reference compound] | cis-2-hexen-1-ol>trans-3-hexen-1-ol | – | – | – | – |
| CC/C=C/CCO [trans-3-hexen-1-ol, reference compound] | trans-3-hexen-1-ol>trans-2-hexen-1-ol | – | – | – | – |
| CCC/C=C/C=O [trans-2-hexenal] | trans-2-hexenal>α-pinene | did not significantly affect | relaxed smooth muscle cells | – | – |
| CC1=CCC2CC1C2(C)C (stereo not drawn) [α-pinene] | α-pinene>cis-2-hexen-1-ol | did not significantly affect | – | hypnotic effect | prolong the resting period |
